{"source": "ChEMBL document CHEMBL1135808", "about": "“A new type of mixed anhydride and its applications to the synthesis of 7-substituted 8-chloro-5,5-dioxoimidazo[1,2-b][1,4,2]benzodithiazines with in vitro antitumor activity” (2002)", "key": {"Tumor Cell line": {"tested_on": "Tumor Cell line", "assay": "In vitro inhibition of 50% cell growth was reported as log of molar concentration for 60 cell lines.", "type": "functional", "details": "Homo sapiens"}, "SF-539 [1]": {"tested_on": "SF-539", "assay": "Log of molar concentration leading to 50% cell death against CNS cancer SF-539 cell line was reported", "type": "functional", "details": "Homo sapiens, read-out: Log LC50 (the source's name) (converted)"}, "SK-OV-3": {"tested_on": "SK-OV-3", "assay": "In vitro total growth inhibition against ovarian cancer SK-OV-3 cell lines was reported.", "type": "functional", "details": "Homo sapiens, read-out: Log TGI (converted)"}, "A549 [2]": {"tested_on": "A549", "assay": "Log of molar concentration leading to 50% cell death against non-small-cell lung cancer A 549/ATCC cell line was reported", "type": "functional", "details": "Homo sapiens, read-out: Log LC50 (the source's name) (converted)"}, "MDA-N": {"tested_on": "MDA-N", "assay": "In vitro growth inhibition against breast cancer MDA-N cell line was reported.", "type": "functional", "details": "Homo sapiens"}, "NCI-H522": {"tested_on": "NCI-H522", "assay": "In vitro growth inhibition against non-small-cell lung cancer […] cell line was reported.", "type": "functional", "details": "Homo sapiens"}, "SNB-19": {"tested_on": "SNB-19", "assay": "In vitro growth inhibition against CNS cancer SNB-19 cell line was reported.", "type": "functional", "details": "Homo sapiens"}, "UACC-257 [3]": {"tested_on": "UACC-257", "assay": "Log of molar concentration leading to 50% cell death against melanoma UACC-257 cell line was reported", "type": "functional", "details": "Homo sapiens, read-out: Log LC50 (the source's name) (converted)"}, "SK-MEL-2 [4]": {"tested_on": "SK-MEL-2", "assay": "In vitro total growth inhibition against melanoma SK-MEL-2 cell lines was reported.", "type": "functional", "details": "Homo sapiens, read-out: Log TGI (converted)"}, "SR": {"tested_on": "SR", "assay": "Log of molar concentration leading to 50% cell death against leukemia SR cell line was reported", "type": "functional", "details": "Homo sapiens, read-out: Log LC50 (the source's name) (converted)"}, "UO-31": {"tested_on": "UO-31", "assay": "In vitro growth inhibition against renal cancer UO-31 cell line was reported.", "type": "functional", "details": "Homo sapiens"}, "LOX IMVI [5]": {"tested_on": "LOX IMVI", "assay": "In vitro total growth inhibition against melanoma LOX IMVI cell lines was reported.", "type": "functional", "details": "Homo sapiens, read-out: Log TGI (converted)"}, "NCI-H46": {"tested_on": "NCI-H46", "assay": "In vitro growth inhibition against non-small-cell lung cancer […] cell line was reported.", "type": "functional", "details": "Homo sapiens"}, "KM12": {"tested_on": "KM12", "assay": "Log of molar concentration leading to 50% cell death against colon cancer KM12 cell line was reported", "type": "functional", "details": "Homo sapiens, read-out: Log LC50 (the source's name) (converted)"}, "NCI-H23": {"tested_on": "NCI-H23", "assay": "In vitro growth inhibition against non-small-cell lung cancer NCI-H23 cell line was reported.", "type": "functional", "details": "Homo sapiens"}, "NCI-H322M": {"tested_on": "NCI-H322M", "assay": "In vitro total growth inhibition against non-small-cell lung cancer NCI-H322M cell lines was reported.", "type": "functional", "details": "Homo sapiens, read-out: Log TGI (converted)"}, "OVCAR-5 [6]": {"tested_on": "OVCAR-5", "assay": "Log of molar concentration leading to 50% cell death against ovarian cancer […] cell line was reported", "type": "functional", "details": "Homo sapiens, read-out: Log LC50 (the source's name) (converted)"}, "UACC-62": {"tested_on": "UACC-62", "assay": "In vitro total growth inhibition against melanoma UACC-62 cell lines was reported.", "type": "functional", "details": "Homo sapiens, read-out: Log TGI (converted)"}, "ACHN [7]": {"tested_on": "ACHN", "assay": "In vitro total growth inhibition against renal cancer ACHN cell lines was reported.", "type": "functional", "details": "Homo sapiens, read-out: Log TGI (converted)"}, "LOX IMVI [8]": {"tested_on": "LOX IMVI", "assay": "Log of molar concentration leading to 50% cell death against melanoma LOX IMVI cell line was reported", "type": "functional", "details": "Homo sapiens, read-out: Log LC50 (the source's name) (converted)"}, "UACC-257 [9]": {"tested_on": "UACC-257", "assay": "In vitro total growth inhibition against melanoma UACC-257 cell lines was reported.", "type": "functional", "details": "Homo sapiens, read-out: Log TGI (converted)"}, "PC-3": {"tested_on": "PC-3", "assay": "In vitro total growth inhibition against prostate cancer PC-3 cell lines was reported.", "type": "functional", "details": "Homo sapiens, read-out: Log TGI (converted)"}, "T47D [10]": {"tested_on": "T47D", "assay": "Log of molar concentration leading to 50% cell death against breast cancer […] cell line was reported", "type": "functional", "details": "Homo sapiens, read-out: Log LC50 (the source's name) (converted)"}, "SW-620": {"tested_on": "SW-620", "assay": "Log of molar concentration leading to 50% cell death against colon cancer SW620 cell line was reported", "type": "functional", "details": "Homo sapiens, read-out: Log LC50 (the source's name) (converted)"}, "SNB-75 [11]": {"tested_on": "SNB-75", "assay": "In vitro growth inhibition against CNS cancer SNB-75 cell line was reported.", "type": "functional", "details": "Homo sapiens"}, "ACHN [12]": {"tested_on": "ACHN", "assay": "In vitro growth inhibition against renal cancer ACHN cell line was reported.", "type": "functional", "details": "Homo sapiens"}, "SF-539 [13]": {"tested_on": "SF-539", "assay": "In vitro total growth inhibition against CNS cancer SF-539 cell lines was reported.", "type": "functional", "details": "Homo sapiens, read-out: Log TGI (converted)"}, "HOP-92": {"tested_on": "HOP-92", "assay": "In vitro total growth inhibition against non-small-cell lung cancer HOP-92 cell lines was reported.", "details": "Homo sapiens, read-out: Log TGI (converted)"}, "RXF 393": {"tested_on": "RXF 393", "assay": "In vitro growth inhibition against renal cancer RXF 393 cell line was reported.", "type": "functional", "details": "Homo sapiens"}, "OVCAR-5 [14]": {"tested_on": "OVCAR-5", "assay": "In vitro total growth inhibition against ovarian cancer OVCAR-5 cell lines was reported.", "type": "functional", "details": "Homo sapiens, read-out: Log TGI (converted)"}, "A549 [15]": {"tested_on": "A549", "assay": "In vitro growth inhibition against non-small-cell lung cancer A 549/ATCC cell line was reported.", "type": "functional", "details": "Homo sapiens"}, "Malme-3M [16]": {"tested_on": "Malme-3M", "assay": "In vitro total growth inhibition against melanoma MALME 3M cell lines was reported.", "type": "functional", "details": "Homo sapiens, read-out: Log TGI (converted)"}, "SNB-75 [17]": {"tested_on": "SNB-75", "assay": "In vitro total growth inhibition against CNS cancer SNB-75 cell lines was reported.", "type": "functional", "details": "Homo sapiens, read-out: Log TGI (converted)"}, "HCT-15": {"tested_on": "HCT-15", "assay": "In vitro total growth inhibition against colon cancer HCT-15 cell lines was reported.", "type": "functional", "details": "Homo sapiens, read-out: Log TGI (converted)"}, "Malme-3M [18]": {"tested_on": "Malme-3M", "assay": "Log of molar concentration leading to 50% cell death against melanoma MALME 3M cell line was reported", "type": "functional", "details": "Homo sapiens, read-out: Log LC50 (the source's name) (converted)"}, "[19]": {"assay": "Log of molar concentration leading to 50% cell death against breast cancer MDA-MB-435 cell line was reported", "type": "functional", "details": "Homo sapiens, read-out: Log LC50 (the source's name) (converted)"}, "MCF7": {"tested_on": "MCF7", "assay": "In vitro total growth inhibition against breast cancer MCF 7 cell lines was reported.", "type": "functional", "details": "Homo sapiens, read-out: Log TGI (converted)"}, "SK-MEL-2 [20]": {"tested_on": "SK-MEL-2", "assay": "Log of molar concentration leading to 50% cell death against melanoma SK-MEL-2 cell line was reported", "type": "functional", "details": "Homo sapiens, read-out: Log LC50 (the source's name) (converted)"}, "T47D [21]": {"tested_on": "T47D", "assay": "In vitro growth inhibition against breast cancer […] cell line was reported.", "type": "functional", "details": "Homo sapiens"}}, "data": [{"smiles": "Cc1ccc2cccc(NC(=O)c3cc4c(cc3Cl)Sc3nccn3S4(=O)=O)c2n1", "values": [{"measurement": "GI50", "setting": "Tumor Cell line", "value": 97.7, "unit": "µM"}, {"measurement": "CC50", "setting": "SF-539 [1]", "value": 25.7, "unit": "µM"}, {"measurement": "TGI", "setting": "SK-OV-3", "value": 97.7, "unit": "µM"}, {"measurement": "CC50", "setting": "A549 [2]", "value": 63.1, "unit": "µM"}, {"measurement": "GI50", "setting": "MDA-N", "value": 13.8, "unit": "µM"}, {"measurement": "GI50", "setting": "NCI-H522", "value": 10.5, "unit": "µM"}, {"measurement": "GI50", "setting": "SNB-19", "value": 10.2, "unit": "µM"}, {"measurement": "CC50", "setting": "UACC-257 [3]", "value": 51.3, "unit": "µM"}, {"measurement": "TGI", "setting": "SK-MEL-2 [4]", "value": 32.4, "unit": "µM"}, {"measurement": "CC50", "setting": "SR", "value": 27.5, "unit": "µM"}, {"measurement": "GI50", "setting": "UO-31", "value": 1.02, "unit": "µM"}, {"measurement": "TGI", "setting": "LOX IMVI [5]", "value": 18.2, "unit": "µM"}, {"measurement": "GI50", "setting": "NCI-H46", "value": 2.63, "unit": "µM"}, {"measurement": "CC50", "setting": "KM12", "value": 43.7, "unit": "µM"}, {"measurement": "GI50", "setting": "NCI-H23", "value": 13.8, "unit": "µM"}, {"measurement": "TGI", "setting": "NCI-H322M", "value": 24.5, "unit": "µM"}, {"measurement": "CC50", "setting": "OVCAR-5 [6]", "value": 91.2, "unit": "µM"}, {"measurement": "TGI", "setting": "UACC-62", "value": 30.9, "unit": "µM"}, {"measurement": "TGI", "setting": "ACHN [7]", "value": 33.9, "unit": "µM"}, {"measurement": "CC50", "setting": "LOX IMVI [8]", "value": 45.7, "unit": "µM"}, {"measurement": "TGI", "setting": "UACC-257 [9]", "value": 26.9, "unit": "µM"}, {"measurement": "TGI", "setting": "PC-3", "value": 10.5, "unit": "µM"}, {"measurement": "CC50", "setting": "T47D [10]", "value": 38, "unit": "µM"}, {"measurement": "CC50", "setting": "SW-620", "value": 58.9, "unit": "µM"}, {"measurement": "GI50", "setting": "SNB-75 [11]", "value": 6.92, "unit": "µM"}, {"measurement": "GI50", "setting": "ACHN [12]", "value": 8.51, "unit": "µM"}, {"measurement": "TGI", "setting": "SF-539 [13]", "value": 4.9, "unit": "µM"}, {"measurement": "TGI", "setting": "HOP-92", "value": 67.6, "unit": "µM"}, {"measurement": "GI50", "setting": "RXF 393", "value": 9.55, "unit": "µM"}, {"measurement": "TGI", "setting": "OVCAR-5 [14]", "value": 37.2, "unit": "µM"}, {"measurement": "GI50", "setting": "A549 [15]", "value": 12.3, "unit": "µM"}, {"measurement": "TGI", "setting": "Malme-3M [16]", "value": 33.1, "unit": "µM"}, {"measurement": "TGI", "setting": "SNB-75 [17]", "value": 30.9, "unit": "µM"}, {"measurement": "TGI", "setting": "HCT-15", "value": 27.5, "unit": "µM"}, {"measurement": "CC50", "setting": "Malme-3M [18]", "value": 64.6, "unit": "µM"}, {"measurement": "CC50", "setting": "[19]", "value": 55, "unit": "µM"}, {"measurement": "TGI", "setting": "MCF7", "value": 14.8, "unit": "µM"}, {"measurement": "CC50", "setting": "SK-MEL-2 [20]", "value": 77.6, "unit": "µM"}, {"measurement": "GI50", "setting": "T47D [21]", "value": 2.4, "unit": "µM"}]}]}
